Legend:
[1] = Stability of the compound in PBS buffer assessed as half life at 250 uM at pH 7.4 in presence of GSH by HPLC analysis; type: physicochemical; conditions: pH 7.4, 250 µM
[2] = target: Mitogen-activated protein kinase 8 (Homo sapiens, UniProt P45983); assay: Binding affinity to JNK1 (2 to 364 residues) (unknown origin) expressed in Escherichia coli BL21(DE3) assessed as dissociation constant by isothermal titration calorimetry assay
[3] = target: Mitogen-activated protein kinase 10 (Homo sapiens, UniProt P53779); assay: Binding affinity to JNK3 (39 to 402 residues) (unknown origin) expressed in Escherichia coli BL21(DE3) assessed as dissociation constant by isothermal titration calorimetry assay
Mitogen-activated protein kinase 10, sequence (P53779 whole entry, the tested form may be a part): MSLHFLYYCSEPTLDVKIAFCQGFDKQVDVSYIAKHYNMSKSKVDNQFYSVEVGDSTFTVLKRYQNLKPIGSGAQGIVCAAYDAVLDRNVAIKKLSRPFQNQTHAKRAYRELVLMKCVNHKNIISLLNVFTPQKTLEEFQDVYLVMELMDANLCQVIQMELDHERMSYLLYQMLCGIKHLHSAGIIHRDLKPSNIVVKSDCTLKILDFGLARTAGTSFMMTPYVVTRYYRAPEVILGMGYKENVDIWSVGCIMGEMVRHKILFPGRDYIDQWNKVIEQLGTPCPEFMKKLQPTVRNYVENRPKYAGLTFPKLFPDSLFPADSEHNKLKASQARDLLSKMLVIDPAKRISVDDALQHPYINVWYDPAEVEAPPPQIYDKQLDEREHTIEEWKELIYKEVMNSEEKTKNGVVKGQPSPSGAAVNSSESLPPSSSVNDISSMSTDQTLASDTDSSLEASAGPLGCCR

Mitogen-activated protein kinase 8, sequence (P45983 whole entry, the tested form may be a part): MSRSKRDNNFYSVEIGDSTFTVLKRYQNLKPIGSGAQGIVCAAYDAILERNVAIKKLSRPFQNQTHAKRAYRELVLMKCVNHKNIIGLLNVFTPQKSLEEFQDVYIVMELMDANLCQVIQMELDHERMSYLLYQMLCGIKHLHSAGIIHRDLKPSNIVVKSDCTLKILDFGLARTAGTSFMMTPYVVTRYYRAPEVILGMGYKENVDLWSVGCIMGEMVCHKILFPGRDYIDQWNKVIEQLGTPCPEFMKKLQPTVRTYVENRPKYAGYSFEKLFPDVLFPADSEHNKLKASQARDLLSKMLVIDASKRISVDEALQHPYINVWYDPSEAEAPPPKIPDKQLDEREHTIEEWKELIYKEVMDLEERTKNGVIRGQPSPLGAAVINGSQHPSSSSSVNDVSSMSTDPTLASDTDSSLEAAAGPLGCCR

| SMILES | t1/2 [1] | Kd [2] | Kd [3] | Kd ([2]; read-out: Kd) | Kd ([3]; read-out: Kd) |
| --- | --- | --- | --- | --- | --- |
| O=C(Nc1ccc2c(c1)OCO2)C(F)(F)I | 12.1 days | Not Active | Not Active | – | – |
| O=C(NCCc1c[nH]c2ccccc12)C(F)(F)Cl | – | Not Active | Not Active | – | – |
| CCOC(=O)c1cnn(C)c1NC(=O)C(F)(F)Cl | – | Not Active | Not Active | – | – |
| O=C(Nc1cccc2nsnc12)C(F)(F)Br | – | Not Active | Not Active | – | – |
| O=C(Nc1ccc(O)c(O)c1)C(F)(F)Cl | – | Not Active | Not Active | – | – |
| O=C(Nc1nncs1)C(F)(F)I | – | – | – | 104 µM | 186 µM |
| Nc1nnc(-c2ccncc2)s1 | – | – | Not Active | 162 µM | – |
| O=C(Nc1ccc(Cn2cncn2)cc1)C(F)(F)Br | – | Not Active | Not Active | – | – |
| O=C(Nc1nccs1)C(F)(F)Br | – | – | – | > 1000 µM | > 1000 µM |
| O=C(Nc1nncs1)C(F)(F)Br | – | – | – | 193 µM | 248 µM |
| O=C(Nc1ccc2c(c1)OCO2)C(F)(F)Br | 11.7 days | – | – | > 1000 µM | > 1000 µM |
| O=C(c1cnc2ccccn12)C(F)(F)Cl | – | – | – | > 1000 µM | > 1000 µM |
| O=C(Nc1nncs1)C(F)(F)Cl | – | – | – | 186 µM | 243 µM |
| CCOC(=O)c1c(NC(=O)C(F)(F)Br)sc2c1CCCC2 | – | Not Active | Not Active | – | – |
| O=C(Nc1ccc2c(c1)OCO2)C(F)(F)Cl | 10.8 days | Not Active | – | – | > 1000 µM |
| COC(=O)c1scc(C)c1NC(=O)C(F)(F)Cl | – | Not Active | Not Active | – | – |

Next, values leading:

| t1/2 [1] | Kd [2] | Kd [3] | Kd ([2]; read-out: Kd) | Kd ([3]; read-out: Kd) | SMILES |
| --- | --- | --- | --- | --- | --- |
| 0.3 days | – | – | – | – | NC(=O)Nc1ccc(OC(F)(F)I)cc1 |
| – | Not Active | Not Active | – | – | O=C(Nc1ccc(F)cc1)C(F)(F)Br |
| – | Not Active | Not Active | – | – | O=C(Nc1nnc(-c2ccc([N+](=O)[O-])cc2)o1)C(F)(F)Br |
| – | Not Active | Not Active | – | – | O=C(c1ccco1)N1CCN(C(=O)C(F)(F)Br)CC1 |
| > 50 days | – | – | – | – | O=C(Nc1ccc2c(c1)OCO2)C(F)F |
| – | Not Active | Not Active | – | – | NC(=O)Nc1ccc(NC(=O)C(F)(F)Br)cc1 |
| – | – | – | 15 µM | 17 µM | O=C(Nc1nnc(-c2ccncc2)s1)C(F)(F)Br |
| – | – | – | 20 µM | 23 µM | O=C(Nc1nnc(-c2ccncc2)s1)C(F)(F)Cl |
| 5.42 days | – | – | – | – | O=C(Nc1ccc2c(c1)OCO2)C(F)(F)F |
| – | – | – | 10 µM | 13 µM | O=C(Nc1nnc(-c2ccncc2)s1)C(F)(F)I |
| > 50 days | – | – | – | – | NC(=O)Nc1ccc(OC(F)F)cc1 |
| > 50 days | – | – | – | – | NC(=O)Nc1ccc(OC(F)(F)F)cc1 |
| 0.221 days | – | – | – | – | NC(=O)Nc1ccc(OC(F)(F)Br)cc1 |
| > 50 days | – | – | – | – | NC(=O)Nc1ccc(OC(F)(F)Cl)cc1 |

Source: ChEMBL document CHEMBL5360623, “Principles and Applications of CF2X Moieties as Unconventional Halogen Bond Donors in Medicinal Chemistry, Chemical Biology, and Drug Discovery” (J Med Chem, 2023)
